Three sequences from US20250101065A1, “REVERSE PEPTIDES FROM CORONAVIRUS FOR IMMUNOGENIC PURPOSES” (Emergex Vaccines Holding Limited, priority 2021, published 2025) can be followed below.

No end group written: not given here.

One assay deals with human PBMCs. The assay can be described thus: IFN-gamma ELISPOT after stimulation of PBMCs with negative sense SARS-COV-2 peptides. The class given is cell-based.
The next assay concerns CD3+ T cells of PBMCs. The assay can be described thus: Flow cytometry analysis of T cell surface markers after peptide stimulation of PBMCs. The format is cell-based, human. On the procedure: At day 7 post-stimulation, remaining PBMCs were resuspended in flow cytometry buffer (PBS+1% BSA+2 mM EDTA) at a concentration of 1×10^6 cells/mL, and blocked for at least 10 minutes. Cells were then aliquoted in a 96-well plate, centrifuged (5 mins/[…]/300×g), and resuspended in 45 μL buffer. Live/Dead stain was added (Fixable Near IR) at 1 μL in 1000 μL, and cells incubated at […] for 10 minutes in the dark. 120 μL buffer was added, samples were centrifuged for 5 mins, supernatants discarded and wash repeated with 200 μL buffer. Cells were then resuspended in buffer containing antibodies to T cell markers at the appropriate concentration (final staining volume 50 μL) and incubated for at least 30 minutes in the dark at […]
120 μL buffer was added to cell samples, centrifuged for 5 mins, supernatants discarded. This wash step was then repeated. Compensation beads were incubated with the individual antibodies at the same concentration. Voltages on the Attune flow cytometer were adjusted using antibody-stained compensation beads, as well as unstained and NIR-stained cells.
Acquisition was set to acquire at least 150,000 events on CD3 gated cells.
PBMCs were stained with a panel of antibodies (as listed in the previous section) against cell surface markers to characterize different T cell populations, such as naïve T cells (A), Central memory T cells (B), Effector memory T cells (C) and (D), and resident memory T cells (E). In addition, activation markers were also analysed (F) to (I). The percentage of positive cells gated on CD3+T cell populations were plotted.

[1] abbreviates: PBMCs from EVB00028, day 7 post-stimulation.

As for VALLTCQTIGLCN [SEQ ID NO: 11], in the assay with human PBMCs (donor EVB00033), the “IFN-gamma ELISPOT reactivity” value is recorded as “reacted strongly”. Besides, the “Activation of CD3+ cells (upregulation of CD69, CD38, OX40/CD25, PDL1/CD25)” value with CD3+ T cells of PBMCs (setting [1]) is “induced activation”.
“LYVALLVALLTCQ [SEQ ID NO: 6, LYVALLVALLTCQ]”: the “IFN-gamma ELISPOT reactivity” value in the assay on human PBMCs (all three donors (EVB00028, EVB00031, EVB00033), 7 days stimulation, 24 h re-stimulation) is “strong reactivity”. Moreover, the “Activation of CD3+ cells (upregulation of CD69, CD38, OX40/CD25, PDL1/CD25)” value was “induced activation” in the assay with CD3+ T cells of PBMCs (setting [1]) and “similarly activated” with CD3+ T cells of PBMCs (PBMCs from EVB00033, day 7 post-stimulation).
Turning to VFTLHSRTSF [SEQ ID NO: 12], the “IFN-gamma ELISPOT reactivity” value with human PBMCs (donors EVB00028 and EVB00031) was “reacted strongly”.
